# Read-outs that look alike come from different tables or passages of the source.
# Experiments:
# [1] = molecular target: T1, E. coli DnaE (DNA polymerase III α-subunit from Escherichia coli) (Escherichia coli, UniProt P10443); assay: In vitro DnaE single enzyme assay (E. coli); type: biochemical
# T1 construct: EcDnaE (E. coli DnaE residues 1-1160); 6xHis (N); made in house; host or cells: E. coli BL21(DE3)
# In short: (§1)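 3H-dTTP (0.011 mM) incorporation into DNase I-activated calf thymus DNA, alongside the other three dNTPs at 0.025 mM, measured by filter counting after TCA precipitation. Reactions ran 30 min at 30° C., started with purified N-His DnaE: 0.8 μg/ml for E. coli, 0.05 μg/ml for S. aureus.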
# [2] = molecular target: T2, S. aureus DnaE (DNA polymerase III α-subunit homolog from Staphylococcus aureus) (Staphylococcus aureus, UniProt Q5HF71); assay: biochemical; type: biochemical; details: for IC50: S. aureus DnaE IC50
# T2 construct: SaDnaE (S. aureus DnaE residues 1-1065); 6xHis (N); made in house; host or cells: E. coli BL21-AI
# T2 sequence (Q5HF71 1-1065): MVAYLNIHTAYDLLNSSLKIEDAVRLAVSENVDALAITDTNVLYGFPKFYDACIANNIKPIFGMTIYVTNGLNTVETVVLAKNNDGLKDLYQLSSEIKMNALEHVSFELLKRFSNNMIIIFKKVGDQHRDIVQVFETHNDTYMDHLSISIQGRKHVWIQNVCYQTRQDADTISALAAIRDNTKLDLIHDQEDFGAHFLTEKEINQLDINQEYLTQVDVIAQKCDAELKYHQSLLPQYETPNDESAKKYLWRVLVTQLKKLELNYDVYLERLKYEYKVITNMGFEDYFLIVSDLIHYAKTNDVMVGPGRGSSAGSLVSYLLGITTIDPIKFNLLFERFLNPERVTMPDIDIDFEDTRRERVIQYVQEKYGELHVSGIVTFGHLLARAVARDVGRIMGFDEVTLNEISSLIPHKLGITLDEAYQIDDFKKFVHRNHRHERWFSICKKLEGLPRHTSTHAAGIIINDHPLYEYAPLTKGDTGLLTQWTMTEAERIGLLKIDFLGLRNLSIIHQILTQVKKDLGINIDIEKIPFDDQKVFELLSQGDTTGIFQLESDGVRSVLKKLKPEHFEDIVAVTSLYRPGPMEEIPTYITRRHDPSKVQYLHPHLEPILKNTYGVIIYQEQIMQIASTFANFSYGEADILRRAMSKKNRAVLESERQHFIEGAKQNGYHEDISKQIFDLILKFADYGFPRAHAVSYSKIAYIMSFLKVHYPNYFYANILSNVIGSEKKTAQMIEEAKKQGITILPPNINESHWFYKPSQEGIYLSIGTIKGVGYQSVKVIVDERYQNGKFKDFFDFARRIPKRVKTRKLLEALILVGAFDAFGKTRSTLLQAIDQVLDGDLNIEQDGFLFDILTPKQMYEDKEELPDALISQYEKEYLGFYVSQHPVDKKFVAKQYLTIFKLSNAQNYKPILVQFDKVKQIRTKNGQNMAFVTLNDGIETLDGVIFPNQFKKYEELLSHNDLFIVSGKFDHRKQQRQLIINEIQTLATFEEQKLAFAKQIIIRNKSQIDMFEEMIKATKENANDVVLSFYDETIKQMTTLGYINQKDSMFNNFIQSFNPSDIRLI
# In short: as §1
# [3] = tested on: Escherichia coli MB5747 (LS 883, tolC); assay: microbe, parasite or virus in culture; type: cell-based; details: * = some reduction of growth versus control at […]; for E. coli LS883 tolC (MIC): MHII broth; for MIC: Escherichia coli, read-out: E. coli LS883 tolC (MIC), MHII broth
# [4] = tested on: Pseudomonas aeruginosa MB5890 (CB1101, efflux-deleted); assay: microbe, parasite or virus in culture; type: cell-based; details: * = some reduction of growth versus control at […]; for P. aeruginosa MB5890 efflux-del (MIC): MHII broth; for MIC: Pseudomonas aeruginosa, read-out: P. aeruginosa MB5890 efflux-del (MIC), MHII broth
# [5] = tested on: Staphylococcus aureus MB6266 (MRSA COL); assay: Nargenicin antibacterial assay (MIC), S. aureus; type: cell-based; details: * = some reduction of growth versus control at […]; for S. aureus COL (MIC): MHII broth + 50% human serum; for MIC: Staphylococcus aureus, MRSA, read-out: S. aureus COL (MIC), MHII broth + 50% human serum
# [6] = tested on: Streptococcus pneumoniae MB6357 (CL 2883); assay: Nargenicin antibacterial assay (MIC), S. pneumoniae; type: cell-based; details: * = some reduction of growth versus control at […]; for S. pneumoniae MB2883 (MIC): Isosensitest broth; for MIC: Streptococcus pneumoniae, read-out: S. pneumoniae MB2883 (MIC), Isosensitest broth
# [7] = tested on: Drug susceptible M. tuberculosis clinical isolates; type: cell-based, Mycobacterium tuberculosis
# [8] = read-out: E. coli DnaE IC50 (converted)
# T1 sequence (P10443 whole entry, the tested form may be a part): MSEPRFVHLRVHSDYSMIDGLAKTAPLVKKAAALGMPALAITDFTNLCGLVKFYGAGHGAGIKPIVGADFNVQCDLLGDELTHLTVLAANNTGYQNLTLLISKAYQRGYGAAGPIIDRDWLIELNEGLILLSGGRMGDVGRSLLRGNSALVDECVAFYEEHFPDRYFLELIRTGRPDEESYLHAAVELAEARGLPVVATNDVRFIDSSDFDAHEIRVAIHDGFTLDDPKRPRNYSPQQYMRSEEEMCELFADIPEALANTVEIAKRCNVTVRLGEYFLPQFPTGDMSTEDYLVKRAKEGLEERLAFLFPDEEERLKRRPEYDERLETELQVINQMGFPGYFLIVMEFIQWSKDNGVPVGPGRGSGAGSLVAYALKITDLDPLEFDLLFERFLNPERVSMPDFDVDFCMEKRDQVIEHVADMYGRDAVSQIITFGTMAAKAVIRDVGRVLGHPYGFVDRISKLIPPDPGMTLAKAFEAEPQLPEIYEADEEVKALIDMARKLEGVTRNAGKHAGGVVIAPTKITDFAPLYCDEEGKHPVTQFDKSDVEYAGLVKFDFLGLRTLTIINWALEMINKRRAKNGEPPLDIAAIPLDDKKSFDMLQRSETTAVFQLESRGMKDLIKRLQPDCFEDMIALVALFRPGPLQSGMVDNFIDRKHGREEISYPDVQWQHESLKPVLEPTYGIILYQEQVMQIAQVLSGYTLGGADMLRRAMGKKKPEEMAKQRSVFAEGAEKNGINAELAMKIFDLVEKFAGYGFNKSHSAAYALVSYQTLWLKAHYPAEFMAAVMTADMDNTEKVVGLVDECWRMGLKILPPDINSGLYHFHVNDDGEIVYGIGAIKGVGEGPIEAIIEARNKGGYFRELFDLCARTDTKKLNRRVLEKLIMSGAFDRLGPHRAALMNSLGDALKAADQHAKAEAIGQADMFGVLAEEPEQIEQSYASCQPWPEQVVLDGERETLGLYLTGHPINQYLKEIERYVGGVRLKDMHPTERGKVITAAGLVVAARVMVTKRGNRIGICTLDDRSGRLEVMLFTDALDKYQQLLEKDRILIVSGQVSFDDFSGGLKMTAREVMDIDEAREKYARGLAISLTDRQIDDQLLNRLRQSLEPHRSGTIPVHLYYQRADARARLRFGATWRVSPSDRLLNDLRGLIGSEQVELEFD
SMILES,E. coli DnaE IC50 [1],S. aureus DnaE IC50 [2],E. coli LS883 tolC (MIC) [3],P. aeruginosa MB5890 efflux-del (MIC) [4],S. aureus COL (MIC) [5],S. pneumoniae MB2883 (MIC) [6],MICs compared with nargenicin [7],MICs compared with nargenicin ([7]; M. tuberculosis clinical isolates (MTB panel)),IC50 ([1]; E. coli DnaE IC50),IC50 [2],MIC [3],MIC [4],MIC [5],MIC [6],"IC50 [1, 8]"
CO[C@H]1C[C@H]2C=CC3C4[C@H](O)[C@@H](C)[C@@H](OC(=O)c5ccc[nH]5)[C@@H]3O[C@]42/C(C)=C/[C@@H](C)[C@@H]([C@@H](C)OC(=O)C(=O)N2CCOCC2)OC1=O [Example 118],>100 µg/mL,0.004 µg/mL,1 µg/mL,32 µg/mL,0.5 µg/mL,128 µg/mL,equal to or better than nargenicin,,,,,,,,
CO[C@H]1CC2C=C[C@H]3[C@H]4O[C@]2(/C(C)=C/[C@@H](C)[C@@H](C(C)O)OC1=O)[C@@H]3[C@H](O)[C@@H](C)[C@H]4OC(=O)c1cccn1C(=O)C(C)C (some centres unmarked) [Example 204],,,,,,,,equal to or better than nargenicin,,,,,,,
"CO[C@H]1C[C@H]2C=C[C@H]3[C@H]4O[C@]2(/C(C)=C/[C@@H](C)[C@@H]([C@@H](C)OC(=O)NC(=O)C(Cl)(Cl)Cl)OC1=O)[C@@H]3[C@H](OC(=O)NC(=O)C(Cl)(Cl)Cl)[C@@H](C)[C@H]4OC(=O)c1ccc[nH]1 [Example 1, (3R,4S,7S,8aS,10aR,11R,12R,13R,14R,14aS,14bS,E)-7-methoxy-1,3,13-trimethyl-6-oxo-14-(((2,2,2-trichloroacetyl)carbamoyl)oxy)-4-((R)-1-(((2,2,2-trichloroacetyl)carbamoyl)oxy)ethyl)-3,4,6,7,8,8a,10a,11,12,13,14,14 a-dodecahydro-11,14b-epoxynaphtho[2,1-e]oxecin-12-yl 1H-pyrrole-2-carboxylate]",,,,,,,,,67.2 µM,34.7 µM,> 8 µg/mL,> 128 µg/mL,> 8 µg/mL,> 128 µg/mL,
CO[C@H]1CC2C=C[C@H]3[C@H]4O[C@]2(/C(C)=C/[C@@H](C)[C@@H](C(C)NC2CC2)OC1=O)[C@@H]3[C@H](O)[C@@H](C)[C@H]4OC(=O)c1ccc[nH]1 (some centres unmarked) [Example 185],,,,,,,,,,< 0.0108 µM,> 128 µg/mL,> 128 µg/mL,> 128 µg/mL,> 128 µg/mL,> 180 µM
CO[C@H]1CC2C=C[C@H]3[C@H]4O[C@]2(/C(C)=C/[C@@H](C)[C@@H](C(C)=O)OC1=O)[C@@H]3[C@H](O)[C@@H](C)[C@H]4OC(=O)c1ccc[nH]1 (some centres unmarked) [Example 177],,,,,,,,,,< 0.0117 µM,0.5 µg/mL,8 µg/mL,1 µg/mL,> 128 µg/mL,8.76 µM
CO[C@H]1C[C@H]2C=CC3C4[C@H](O)[C@@H](C)[C@@H](OC(=O)c5ccc[nH]5)[C@@H]3O[C@]42/C(C)=C/[C@@H](C)[C@@H]([C@@H](C)OC(=O)C(=O)OCCCN(C)C)OC1=O.O=C(O)C(F)(F)F [Example 206],,,,,,,,,,< 0.00763 µM,4 µg/mL,64 µg/mL,4 µg/mL,> 128 µg/mL,1.91 µM
CO[C@H]1C[C@H]2C=CC3C4[C@H](O)[C@@H](C)[C@@H](OC(=O)c5ccc[nH]5)[C@@H]3O[C@]42/C(C)=C/[C@@H](C)[C@@H]([C@@H](C)OC(=O)C(=O)NC(C)(C)C)OC1=O [Example 116],15 µg/mL,0.006 µg/mL,0.25 µg/mL,8 µg/mL,≤0.125 µg/mL,>128* μg/mL,,,,,,,,,
CO[C@H]1C[C@H]2C=CC3C4[C@H](O)[C@@H](C)[C@@H](OC(=O)c5ccc[nH]5)[C@@H]3O[C@]42/C(C)=C/[C@@H](C)[C@@H]([C@@H](C)OC(=O)C(=O)OCCN2CCCCC2)OC1=O.O=C(O)C(F)(F)F [Example 213],,,,,,,,,,< 0.00738 µM,4 µg/mL,128 µg/mL,4 µg/mL,> 128 µg/mL,4.43 µM
CO[C@H]1C[C@H]2C=C[C@H]3[C@H]4O[C@]2(/C(C)=C/[C@@H](C)[C@@H]([C@@H](C)O)OC1=O)[C@@H]3[C@H](O)[C@@H](C)[C@H]4OC(=O)c1ccc(Cl)[nH]1 [Example 44],,,,,,,,,,< 0.0109 µM,8 µg/mL,128 µg/mL,16 µg/mL,64 µg/mL,49.1 µM
